Measurements: US20240158394A1, “NEK7 INHIBITORS” (Halia Therapeutics, Inc., priority 2022, published 2024)
pIC50: −log10 of the molar value.

Assays:
[1] = target: full-length recombinant human NEK7 (Homo sapiens (Human), UniProt Q8TDX7); assay: NEK7 Enzymatic Assay; type: biochemical; conditions: casein substrate, [33P]-ATP, 2 hours at room temperature
How it was run: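 GST-tagged full-length human NEK7 (Sf9-expressed) with 1 mg/mL casein in HEPES pH 7.5/MgCl2 buffer, 1% DMSO; compounds 10 μM–0.5 nM preincubated 20 min at RT. Reaction started with [^33P]-ATP, 2 h at RT, P81 filter radioactivity read; IC50 from % activity remaining versus vehicle.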

[2] = test system: IL-1β release; assay: IL-1β Release Assay; type: cell-based; conditions: Homo sapiens; PMA-treated THP-1 cells, 250 ng/mL LPS then 20 μM nigericin; cleaved IL-1β in media
Experimental: Approximately 1.5 million THP-1 cells were plated in each well of a 6-well TC plate and incubated with 40 nM PMA in RPMI (10% FBS, 1% Penstrep) for 24 hours. The media was then removed, and cells were rested in RPMI (10% FBS, 1% Penstrep) for 24 hours after which time the media was removed and cells were pre-treated for 2 hours with various concentrations of compounds of interest (typically serial 3-fold dilution in RPMI+5% FBS, concentrations ranging from 1 μM to 0.5 nM) in RPMI (5% FBS). The media was again removed, and cells were incubated with 250 ng/mL LPS and compounds of interest (concentrations as above) in RMPI (5% FBS) for 2 hours. The media was removed for a last time and cells were incubated with 20 μM nigericin and compounds of interest (concentrations as above) in Opti-MEM for 30 minutes. Cell media was then collected and the amount of cleaved IL-1β was determined using a JESS instrument (Protein Simple) and standard protocols. Cleaved Il-1β antibody was obtained from Cell Signaling (catalogue #83186S) and was used at 1:20 dilution in antibody diluent 2. Protein Simple 1× anti-Rabbit HRP secondary antibody was used along with Protein Simple luminol and peroxide for chemiluminescent detection. Primary antibody incubation time was increased from 30 minutes to 60 minutes.

Chain of full-length recombinant human NEK7 (Q8TDX7 whole entry): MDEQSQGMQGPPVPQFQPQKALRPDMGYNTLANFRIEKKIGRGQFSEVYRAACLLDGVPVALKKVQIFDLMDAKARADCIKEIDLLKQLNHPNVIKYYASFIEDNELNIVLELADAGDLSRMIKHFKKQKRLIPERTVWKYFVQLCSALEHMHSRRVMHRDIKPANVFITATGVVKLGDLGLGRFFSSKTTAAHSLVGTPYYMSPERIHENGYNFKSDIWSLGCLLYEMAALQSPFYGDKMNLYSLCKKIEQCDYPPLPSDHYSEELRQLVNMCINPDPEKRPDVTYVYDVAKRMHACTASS

pIC50 [1]	pIC50 [2]	Compound
> 6.70	> 7.00	CN1CCC(Oc2ccc(NC(=O)Nc3ccc(-c4cn(C5CC5)c5ncnc(N)c45)c4nonc34)cc2C(F)(F)F)CC1 [Example I-79, 1-(7-(4-amino-7-cyclopropyl-7H-pyrrolo[2,3-d]pyrimidin-5-yl)benzo[c][1,2,5]oxadiazol-4-yl)-3-(4-((1-methylpiperidin-4-yl)oxy)-3-(trifluoromethyl)-phenyl)urea]
> 6.70	> 7.00	CN1CCN(Cc2ccc(NC(=O)Nc3ccc(-c4nn(C5CC5)c5ncnc(N)c45)n4ccnc34)cc2C(F)(F)F)CC1 [Example I-98, 1-(5-(4-amino-1-cyclopropyl-1H-pyrazolo[3,4-d]pyrimidin-3-yl)imidazo[1,2-a]pyridin-8-yl)-3-(4-((4-methylpiperazin-1-yl)methyl)-3-(trifluorometh-yl)phenyl)urea]
